The source made the active and inactive calls. Non-standard residues stand in square brackets, D forms with d. Residues, ends and D or L forms follow the SMILES beside them. hArg = N=C(N)NCCCC[C@H](N)C(=O)O; Agb = N=C(N)NCC[C@H](N)C(=O)O; Agp = N=C(N)NC[C@H](N)C(=O)O; Orn = NCCC[C@H](N)C(=O)O; Dab = NCC[C@H](N)C(=O)O; Dap = NC[C@H](N)C(=O)O
Assays:
Staphylococcus aureus [1] = test: Antibacterial activity against methicillin-resistant Staphylococcus aureus assessed as alteration in bacterial growth incubated for overnight by microtiter plate based spectrophotometric analysis; assay type: functional, organism-based
Staphylococcus aureus [2] = test: Antibiofilm activity against methicillin-resistant Staphylococcus aureus assessed as inhibition of biofilm formation by measuring residual biofilm growth incubated for overnight at 10-fold dilution by crystal violet staining based microtiter plate assay relative to control; assay type: functional
Staphylococcus aureus [3] = test: Antibiofilm activity against methicillin-resistant Staphylococcus aureus assessed as inhibition of biofilm formation incubated for overnight by crystal violet staining based microtiter plate assay; assay type: functional, organism-based

With `CC[C@H](C)[C@H](NC(=O)[C@H](CCCNC(=N)N)NC(=O)[C@@H](NC(=O)[C@H](C)NC(=O)[C@@H](NC(=O)[C@@H](NC(=O)[C@H](CC(C)C)NC(=O)[C@H](CCCNC(=N)N)NC(=O)[C@@H](N)C(C)C)[C@@H](C)CC)C(C)C)C(C)C)C(=O)N[C@@H](Cc1c[nH]c2ccccc12)C(=O)N[C@@H](CCCNC(=N)N)C(=O)N[C@@H](CCNC(=N)N)C(N)=O` (H-VRLIVAVRIWR[Agb]-NH2) the Activity (Staphylococcus aureus [1]) was “Active”, the “residual biofilm growth (% of control)” value (Staphylococcus aureus [2]) was 39.9% and the inhibition (Staphylococcus aureus [3]) was “Dose-dependent effect”.

For `CC[C@H](C)[C@H](NC(=O)[C@H](CCCNC(=N)N)NC(=O)[C@@H](NC(=O)[C@H](C)NC(=O)[C@@H](NC(=O)[C@@H](NC(=O)[C@H](CC(C)C)NC(=O)[C@H](CCCNC(=N)N)NC(=O)[C@@H](N)C(C)C)[C@@H](C)CC)C(C)C)C(C)C)C(=O)N[C@@H](Cc1c[nH]c2ccccc12)C(=O)N[C@@H](CCCNC(=N)N)C(=O)N[C@@H](CNC(=N)N)C(N)=O` (H-VRLIVAVRIWR[Agp]-NH2), the Activity (Staphylococcus aureus [2]) was “inactive”.

For `CC[C@H](C)[C@H](NC(=O)[C@H](CCCNC(=N)N)NC(=O)[C@@H](NC(=O)[C@H](C)NC(=O)[C@@H](NC(=O)[C@@H](NC(=O)[C@H](CC(C)C)NC(=O)[C@H](CCCNC(=N)N)NC(=O)[C@@H](N)C(C)C)[C@@H](C)CC)C(C)C)C(C)C)C(=O)N[C@@H](Cc1c[nH]c2ccccc12)C(=O)N[C@@H](CCCNC(=N)N)C(=O)N[C@@H](CCN)C(N)=O` (H-VRLIVAVRIWR[Dab]-NH2), the Activity (Staphylococcus aureus [2]) was “inactive”.

With `CC[C@H](C)[C@H](NC(=O)[C@H](CCCNC(=N)N)NC(=O)[C@@H](NC(=O)[C@H](C)NC(=O)[C@@H](NC(=O)[C@@H](NC(=O)[C@H](CC(C)C)NC(=O)[C@H](CCCNC(=N)N)NC(=O)[C@@H](N)C(C)C)[C@@H](C)CC)C(C)C)C(C)C)C(=O)N[C@@H](Cc1c[nH]c2ccccc12)C(=O)N[C@@H](CCCNC(=N)N)C(=O)N[C@@H](CN)C(N)=O` (H-VRLIVAVRIWR[Dap]-NH2) the Activity (Staphylococcus aureus [1]) was “Active”, the “residual biofilm growth (% of control)” value (Staphylococcus aureus [2]) was 11.9% and the inhibition (Staphylococcus aureus [3]) was “Dose-dependent effect”.

With `CC[C@H](C)[C@H](NC(=O)[C@H](CCCNC(=N)N)NC(=O)[C@@H](NC(=O)[C@H](C)NC(=O)[C@@H](NC(=O)[C@@H](NC(=O)[C@H](CC(C)C)NC(=O)[C@H](CCCNC(=N)N)NC(=O)[C@@H](N)C(C)C)[C@@H](C)CC)C(C)C)C(C)C)C(=O)N[C@@H](Cc1c[nH]c2ccccc12)C(=O)N[C@@H](CCCNC(=N)N)C(=O)N[C@@H](CCCN)C(N)=O` (H-VRLIVAVRIWR[Orn]-NH2) the Activity (Staphylococcus aureus [1]) was “Active”, the “residual biofilm growth (% of control)” value (Staphylococcus aureus [2]) was 7.3% and the inhibition (Staphylococcus aureus [3]) was “Dose-dependent effect”.

For `CC[C@H](C)[C@H](NC(=O)[C@H](CCCNC(=N)N)NC(=O)[C@@H](NC(=O)[C@H](C)NC(=O)[C@@H](NC(=O)[C@@H](NC(=O)[C@H](CC(C)C)NC(=O)[C@H](CCCNC(=N)N)NC(=O)[C@@H](N)C(C)C)[C@@H](C)CC)C(C)C)C(C)C)C(=O)N[C@@H](Cc1c[nH]c2ccccc12)C(=O)N[C@@H](CCCNC(=N)N)C(=O)N[C@@H](CCCCNC(=N)N)C(N)=O` (H-VRLIVAVRIWR[hArg]-NH2), the Activity (Staphylococcus aureus [1]) was “Active”, the “residual biofilm growth (% of control)” value (Staphylococcus aureus [2]) was 8.5% and the inhibition (Staphylococcus aureus [3]) was “Dose-dependent effect”.

With `CC[C@H](C)[C@H](NC(=O)[C@H](CCCNC(=N)N)NC(=O)[C@@H](NC(=O)[C@H](C)NC(=O)[C@@H](NC(=O)[C@@H](NC(=O)[C@H](CC(C)C)NC(=O)[C@H](CCCNC(=N)N)NC(=O)[C@@H](N)C(C)C)[C@@H](C)CC)C(C)C)C(C)C)C(=O)N[C@@H](Cc1c[nH]c2ccccc12)C(=O)N[C@@H](CCNC(=N)N)C(=O)N[C@@H](CCCNC(=N)N)C(N)=O` (H-VRLIVAVRIW[Agb]R-NH2) the Activity (Staphylococcus aureus [2]) was “inactive”.

In the case of `CC[C@H](C)[C@H](NC(=O)[C@H](CCCNC(=N)N)NC(=O)[C@@H](NC(=O)[C@H](C)NC(=O)[C@@H](NC(=O)[C@@H](NC(=O)[C@H](CC(C)C)NC(=O)[C@H](CCCNC(=N)N)NC(=O)[C@@H](N)C(C)C)[C@@H](C)CC)C(C)C)C(C)C)C(=O)N[C@@H](Cc1c[nH]c2ccccc12)C(=O)N[C@@H](CNC(=N)N)C(=O)N[C@@H](CCCNC(=N)N)C(N)=O` (H-VRLIVAVRIW[Agp]R-NH2), the Activity (Staphylococcus aureus [2]) is reported as “inactive”.

With `CC[C@H](C)[C@H](NC(=O)[C@H](CCCNC(=N)N)NC(=O)[C@@H](NC(=O)[C@H](C)NC(=O)[C@@H](NC(=O)[C@@H](NC(=O)[C@H](CC(C)C)NC(=O)[C@H](CCCNC(=N)N)NC(=O)[C@@H](N)C(C)C)[C@@H](C)CC)C(C)C)C(C)C)C(=O)N[C@@H](Cc1c[nH]c2ccccc12)C(=O)N[C@@H](CCN)C(=O)N[C@@H](CCCNC(=N)N)C(N)=O` (H-VRLIVAVRIW[Dab]R-NH2) the Activity (Staphylococcus aureus [2]) was “inactive”.

In the case of `CC[C@H](C)[C@H](NC(=O)[C@H](CCCNC(=N)N)NC(=O)[C@@H](NC(=O)[C@H](C)NC(=O)[C@@H](NC(=O)[C@@H](NC(=O)[C@H](CC(C)C)NC(=O)[C@H](CCCNC(=N)N)NC(=O)[C@@H](N)C(C)C)[C@@H](C)CC)C(C)C)C(C)C)C(=O)N[C@@H](Cc1c[nH]c2ccccc12)C(=O)N[C@@H](CN)C(=O)N[C@@H](CCCNC(=N)N)C(N)=O` (H-VRLIVAVRIW[Dap]R-NH2), the Activity (Staphylococcus aureus [1]) is reported as “Active”, the “residual biofilm growth (% of control)” value (Staphylococcus aureus [2]) is reported as 19.9% and the inhibition (Staphylococcus aureus [3]) is reported as “Dose-dependent effect”.

With `CC[C@H](C)[C@H](NC(=O)[C@H](CCCNC(=N)N)NC(=O)[C@@H](NC(=O)[C@H](C)NC(=O)[C@@H](NC(=O)[C@@H](NC(=O)[C@H](CC(C)C)NC(=O)[C@H](CCCNC(=N)N)NC(=O)[C@@H](N)C(C)C)[C@@H](C)CC)C(C)C)C(C)C)C(=O)N[C@@H](Cc1c[nH]c2ccccc12)C(=O)N[C@@H](CCCN)C(=O)N[C@@H](CCCNC(=N)N)C(N)=O` (H-VRLIVAVRIW[Orn]R-NH2) the Activity (Staphylococcus aureus [1]) was “Active”, the “residual biofilm growth (% of control)” value (Staphylococcus aureus [2]) was 12.3% and the inhibition (Staphylococcus aureus [3]) was “Dose-dependent effect”.

With `CC[C@H](C)[C@H](NC(=O)[C@H](CCCNC(=N)N)NC(=O)[C@@H](NC(=O)[C@H](C)NC(=O)[C@@H](NC(=O)[C@@H](NC(=O)[C@H](CC(C)C)NC(=O)[C@H](CCCNC(=N)N)NC(=O)[C@@H](N)C(C)C)[C@@H](C)CC)C(C)C)C(C)C)C(=O)N[C@@H](Cc1c[nH]c2ccccc12)C(=O)N[C@@H](CCCCNC(=N)N)C(=O)N[C@@H](CCCNC(=N)N)C(N)=O` (H-VRLIVAVRIW[hArg]R-NH2) the Activity (Staphylococcus aureus [1]) was “Active”, the “residual biofilm growth (% of control)” value (Staphylococcus aureus [2]) was 10.8% and the inhibition (Staphylococcus aureus [3]) was “Dose-dependent effect”.

With `CC[C@H](C)[C@H](NC(=O)[C@H](CCCNC(=N)N)NC(=O)[C@@H](NC(=O)[C@H](C)NC(=O)[C@@H](NC(=O)[C@@H](NC(=O)[C@H](CC(C)C)NC(=O)[C@H](CCCNC(=N)N)NC(=O)[C@@H](N)C(C)C)[C@@H](C)CC)C(C)C)C(C)C)C(=O)N[C@@H](CCNC(=N)N)C(=O)N[C@@H](CCCNC(=N)N)C(=O)N[C@@H](CCCNC(=N)N)C(N)=O` (H-VRLIVAVRI[Agb]RR-NH2) the Activity (Staphylococcus aureus [1]) was “Active”, the “residual biofilm growth (% of control)” value (Staphylococcus aureus [2]) was 103.7% and the inhibition (Staphylococcus aureus [3]) was “Dose-dependent effect”.

With `CC[C@H](C)[C@H](NC(=O)[C@H](CCCNC(=N)N)NC(=O)[C@@H](NC(=O)[C@H](C)NC(=O)[C@@H](NC(=O)[C@@H](NC(=O)[C@H](CC(C)C)NC(=O)[C@H](CCCNC(=N)N)NC(=O)[C@@H](N)C(C)C)[C@@H](C)CC)C(C)C)C(C)C)C(=O)N[C@@H](CNC(=N)N)C(=O)N[C@@H](CCCNC(=N)N)C(=O)N[C@@H](CCCNC(=N)N)C(N)=O` (H-VRLIVAVRI[Agp]RR-NH2) the Activity (Staphylococcus aureus [1]) was “Active”, the “residual biofilm growth (% of control)” value (Staphylococcus aureus [2]) was 102.9% and the inhibition (Staphylococcus aureus [3]) was “Dose-dependent effect”.

In the case of `CC[C@H](C)[C@H](NC(=O)[C@H](CCCNC(=N)N)NC(=O)[C@@H](NC(=O)[C@H](C)NC(=O)[C@@H](NC(=O)[C@@H](NC(=O)[C@H](CC(C)C)NC(=O)[C@H](CCCNC(=N)N)NC(=O)[C@@H](N)C(C)C)[C@@H](C)CC)C(C)C)C(C)C)C(=O)N[C@@H](CCN)C(=O)N[C@@H](CCCNC(=N)N)C(=O)N[C@@H](CCCNC(=N)N)C(N)=O` (H-VRLIVAVRI[Dab]RR-NH2), the Activity (Staphylococcus aureus [1]) is reported as “Active”, the “residual biofilm growth (% of control)” value (Staphylococcus aureus [2]) is reported as 90.8% and the inhibition (Staphylococcus aureus [3]) is reported as “Dose-dependent effect”.

For `CC[C@H](C)[C@H](NC(=O)[C@H](CCCNC(=N)N)NC(=O)[C@@H](NC(=O)[C@H](C)NC(=O)[C@@H](NC(=O)[C@@H](NC(=O)[C@H](CC(C)C)NC(=O)[C@H](CCCNC(=N)N)NC(=O)[C@@H](N)C(C)C)[C@@H](C)CC)C(C)C)C(C)C)C(=O)N[C@@H](CN)C(=O)N[C@@H](CCCNC(=N)N)C(=O)N[C@@H](CCCNC(=N)N)C(N)=O` (H-VRLIVAVRI[Dap]RR-NH2), the Activity (Staphylococcus aureus [1]) was “Active”, the “residual biofilm growth (% of control)” value (Staphylococcus aureus [2]) was 15% and the inhibition (Staphylococcus aureus [3]) was “Dose-dependent effect”.

In the case of `CC[C@H](C)[C@H](NC(=O)[C@H](CCCNC(=N)N)NC(=O)[C@@H](NC(=O)[C@H](C)NC(=O)[C@@H](NC(=O)[C@@H](NC(=O)[C@H](CC(C)C)NC(=O)[C@H](CCCNC(=N)N)NC(=O)[C@@H](N)C(C)C)[C@@H](C)CC)C(C)C)C(C)C)C(=O)N[C@@H](CCCN)C(=O)N[C@@H](CCCNC(=N)N)C(=O)N[C@@H](CCCNC(=N)N)C(N)=O` (H-VRLIVAVRI[Orn]RR-NH2), the Activity (Staphylococcus aureus [1]) is reported as “Active”, the “residual biofilm growth (% of control)” value (Staphylococcus aureus [2]) is reported as 39.3% and the inhibition (Staphylococcus aureus [3]) is reported as “Dose-dependent effect”.

With `CC[C@H](C)[C@H](NC(=O)[C@H](CCCNC(=N)N)NC(=O)[C@@H](NC(=O)[C@H](C)NC(=O)[C@@H](NC(=O)[C@@H](NC(=O)[C@H](CC(C)C)NC(=O)[C@H](CCCNC(=N)N)NC(=O)[C@@H](N)C(C)C)[C@@H](C)CC)C(C)C)C(C)C)C(=O)N[C@@H](CCCCNC(=N)N)C(=O)N[C@@H](CCCNC(=N)N)C(=O)N[C@@H](CCCNC(=N)N)C(N)=O` (H-VRLIVAVRI[hArg]RR-NH2) the Activity (Staphylococcus aureus [1]) was “Active”, the “residual biofilm growth (% of control)” value (Staphylococcus aureus [2]) was 37.2% and the inhibition (Staphylococcus aureus [3]) was “Dose-dependent effect”.

`CC[C@H](C)[C@H](NC(=O)[C@H](CC(C)C)NC(=O)[C@H](CCCNC(=N)N)NC(=O)[C@@H](N)C(C)C)C(=O)N[C@H](C(=O)N[C@@H](C)C(=O)N[C@H](C(=O)N[C@@H](CCCNC(=N)N)C(=O)N[C@@H](CCNC(=N)N)C(=O)N[C@@H](Cc1c[nH]c2ccccc12)C(=O)N[C@@H](CCCNC(=N)N)C(=O)N[C@@H](CCCNC(=N)N)C(N)=O)C(C)C)C(C)C` (H-VRLIVAVR[Agb]WRR-NH2) was tested, and the Activity (Staphylococcus aureus [1]) was “Active”, the “residual biofilm growth (% of control)” value (Staphylococcus aureus [2]) was 103.6% and the inhibition (Staphylococcus aureus [3]) was “Dose-dependent effect”.

Source: ChEMBL document CHEMBL4376833, “Influence of Non-natural Cationic Amino Acids on the Biological Activity Profile of Innate Defense Regulator Peptides” (J Med Chem, 2019)
